Measured values published in patent US4337252A, “1-Phenyl-4-morpholino-1-buten-3-01 derivatives, compositions and use” (Univablot, priority 1980, dated 1982).

Legend:
[1] = Toxicity: LD50 in mice by the intraperitoneal route (log-probits method of Miller and Tainter); conditions: mouse, in vivo
Method: The LD50 of the products was measured in mice by the intraperitoneal route according to the "log-probits" method of Miller and Tainter (Proc. Soc. Exptl. Biol. Med. 1944; 57, 261-264).

[2] = tested on: reserpine-induced blepharospasm; experiment: Reserpine antagonism (blepharospasm); type: in vivo, Male, Swiss strain mice; conditions: mice, IP, 1/10 of LD50, 30 min before reserpine 5 mg/kg IP; class symbols
Method: 3. Reserpine antagonism (blepharospasm) (Chen G., and Bohner B., (1961) J. Pharmacol. Exptl. Therap. 131, 179).
Reserpine administered to mice in a dosage of 5 mg/kg intraperitoneally subsequently causes the eyelids to drop more or less completely in the majority of the animals. The administration of certain products inhibits the blepharospasm produced by reserpine.
Male, Swiss strain mice are distributed into groups of 10 and each experiment comprises at least 3 groups:
a control group that receives only the solvent and reserpine
a group treated with a reference product: we chose imipramine
a treated group that receives the product being tested in a dosage of 1/10 of the LD50.
The products being tested are administered intraperitoneally 30 minutes before the intraperitoneal injection of reserpine in a dosage of 5 mg/kg, so as to study their activity as a function of time.
The degree of ptosis for each eye and for each animal is observed every 30 minutes for 4 to 5 hours, according to RUBIN's scoring system (RUBIN et al., J. Pharm. Exp. Therap. 1957, 120, 125-136). The activity of the product is determined by comparing the result obtained with the treated control group. The inhibition of blepharospasm is recorded from 0 to +++.

Compound | LD50 ([1]; mice, IP) [mg/kg] | Blepharospasm (inhibition of reserpine-induced blepharospasm) [2] | LD50 ([1]; ip) [mg/kg]
COc1ccc(C=CC(O)CN2CCOCC2)cc1 (stereo not drawn) [Example 1, 1-(p-methoxyphenyl)-4-morpholino-1-buten-3-ol] | 500 | +++ (inhibition >45%) | 
OC(C=Cc1ccc(Cl)cc1)CN1CCOCC1 (stereo not drawn) [Example 2] |  | +++ (inhibition >45%) | 400
OC(C=Cc1ccc(F)cc1)CN1CCOCC1 (stereo not drawn) [Example 3] |  | ++ (inhibition 26-45%) | 800
Oc1ccc(C=CC(O)CN2CCOCC2)cc1 (stereo not drawn) [Example 4] |  | ++ (inhibition 26-45%) | 650
C#CCOc1ccc(C=CC(O)CN2CCOCC2)cc1 (stereo not drawn) [Example 5] |  | ++ (inhibition 26-45%) | 400
C=CCOc1ccc(C=CC(O)CN2CCOCC2)cc1 (stereo not drawn) [Example 6] |  | ++ (inhibition 26-45%) | 300
